# From patent US20250207175A1, “METHOD FOR DETECTING CONTAMINATING CARBOXYLESTERASE ACTIVITY” (Boehringer Ingelheim International GmbH, priority 2022, published 2025)
# Experiments:
# [1] = Solubility of OPTS in H2O (stock solutions, verified by light scattering); format: physicochemical; settings: water, aqueous stock solution
# Procedure: Stock solutions of the fluorogenic substrate in water were prepared. Aqueous solutions with an OPTS concentration ≥2.0 mM could be prepared. The solubility could be verified by light scattering experiments.
# [2] = format: physicochemical
# From the text: In order to be able to determine the enzymatic activity, a substrate, 1-octanoyloxy-pyrene-3,6,8-trisulfonic acid trisodium salt (OPTS), was chosen. Its hydrolytic product, 1-hydroxypyrene-3,6,8-trisulfonic acid trisodium salt (HPTS), can be detected by fluorescence spectroscopy. The change in the fluorescence signal over time is directly related to the change in the concentration of free fluorophore. The conversion was made possible by setting up a calibration curve with a subsequent linear fit (R^2≥0.99). The experiments of the kinetics measurements with the OPTS/4-MUD substrates assay were performed in duplicates. The reaction mixture without the protein of interest, which served as the respective control, was subtracted from the protein-containing batch. The buffer used for OPTS measurements (hydrophilic substrate) contained 0.3 M HOAc, 0.3 M MES, 0.6 M TRIS and 0.6 M NaCl (4×AMT buffer; acetate, MES, TRIS). For 4-MUD substrate measurements (lipophilic substrate) 0.04 M CHAPS was added in addition. The buffer (AMT) was prepared in four-fold concentration (4×AMT) and was added at 25% (v/v) to the reaction mix. All measurements were carried out in multiwell plates with a preparation volume of 300 μL (75 μL 4×AMT buffer, 30 μL substrate, 75 μL enzyme-containing solution, x μL additive, 300 μL ad. H2O) Unless otherwise stated, all fluorescence spectroscopic measurements were performed using 96-well, clear-bottom, non-binding plates (Greiner, Austria) on a SpectraMax M3 PlateReader (Molecular Device, USA) and recorded using SoftMax Pro 7.0.3 software (Molecular Device, USA). The OPTS assay measurements were typically taken at 25° C., λex=403 nm and λem=512 nm and the 4-MUD assay measurements were taken at 25° C., λex=330 nm and λem=450 nm. For evaluation, the detected fluorescence signal for a reaction mix without protein of interest (control) was subtracted from the reaction mix with protein of interest (e.g. DS). Hydrolysis of the substrate has been measured by detecting the fluorescence intensity of the released chromophore (4-MU or HPTS) immediately following mixing in real-time for a few minutes up to 5 hours depending on fluorescence intensity. The changes in the fluorescence signal over time were subsequently converted to hydrolytic activity using previously established calibration curves with a linear fit (R^2≥0.99).
# The fluorophore HPTS can be released from the substrate (here esterified caprylic acid) by enzymatic or chemical hydrolysis (acidic and alkaline hydrolysis). In order to assess the influence of pH on aqueous solutions of the substrate, 225 μL of a 33.3 μM OPTS solution was added to 75 μL each of AMT buffer (with pH=5.5 and pH=8) and the kinetics of fluorophore release were recorded for two hours.
# There is a clear difference in the slope of the fluorescence signals for the different pH values. Based on the recorded calibration curves the autohydrolysis rate at pH 5.5 was calculated as 1.58*10^−7 units (μmol*min-1) and the autohydrolysis rate at pH 8.0 was calculated as 3.48*10^−6 units. Thus, the hydrolysis rate at pH 8 is about 22-times higher compared to pH 5.5, showing that hydrolysis of the fluorogenic substrate can be observed over time, at basic pH, but only at a very low level at pH 5.5. […]
# [3] = system: porcine pancreatic lipase, PPL (crude extract); assay: OPTS assay: enzymatic hydrolysis of OPTS by PPL; format: biochemical
# Procedure: An aqueous solution of commercially purchased porcine pancreatic lipase, PPL, was prepared (Sigma-Aldrich, US; 100-500 Units/mg protein). According to the manufacturer, this powder mainly contains triacylglycerol lipase, but since it is a homogenised powder from freeze-dried porcine pancreas (crude extract), it is likely to further contain other carboxylesterases and lipases. These enzymes hydrolyse fatty acid esters and this extract was therefore selected for functional tests.
# To record the reaction kinetics of the substrate OPTS with PPL, an aqueous 10 mg/mL PPL solution was prepared by adding 10 mg PPL to 1 mL H2O. The suspension was vortexed for 2 min and centrifuged at 14,000×g for 5 min before the supernatant was removed.
# A reaction mixture of 75 μL AMT buffer (pH=7), 165 μL H2O and 30 μL of an aqueous 10 mg*mL-1 PPL solution was started with the addition of 30 μL of a 250 μM OPTS solution. The increase in fluorescence was recorded over 30 min with 15 s measuring intervals (n=2). As control (blank) served a preparation without PPL (only with H2O). […] The calculated reaction rate is 2.89±0.08*10-5 units (μmol*min-1). […]
# Further inhibition of the non-ionic detergent polysorbate 20 (Tween 20) was tested. […] No inhibition was observed until 50 μg/ml at pH 7.0, but higher concentrations reduced the fluorescence signal (FIG. 5B). […]
# [4] = derivable from literature; cited from earlier work
# [5] = OPTS assay of histidine-containing buffer controls; settings: histidine concentrations of less than 200 μM; data not shown
# Procedure: 9 different antibody (Ab1-Ab9) samples were tested using the OPTS assay. As a control, measurements were performed with the respective same buffer solution as used in the antibody sample.
# Since histidine has been reported previously to mediate hydrolytic activities in aqueous solutions similar to esterases (Delort, Nguyen-Trung et al. 2006, Mason, McCracken et al. 2010, Amano, Kobayashi et al. 2014, Xu, Chen et al. 2017), samples were dialysed against 0.002% NaCl using a two-step dialysis with a molecular weight cut-off (MWCO) of 20K. For preparative dialysis, the pre-wettened dialysis cassette was filled with 2 ml antibody solution and placed in a beaker filled with 1 L NaCl (0.002% w/v) solution with gentle stirring. After one hour the 1 L NaCl solution was replaced with fresh NaCl (0.002% w/v) solution and dialysed for another two hours with gentle stirring. […] In the following the assay was performed using dialysed drug substance samples. The same solution (final solution outside the dialysis cassette) was used as control sample to be subtracted from the test sample.
# lipase activity = settings: FIG. 10 of WO 2022 049294 A1; cited from earlier work
compound,measurement,setting,value
"CCCCCCCC(=O)Oc1cc(S(=O)(=O)[O-])c2ccc3c(S(=O)(=O)[O-])cc(S(=O)(=O)[O-])c4ccc1c2c43.[Na+].[Na+].[Na+] [OPTS, 1-octanoyloxy-pyrene-3,6,8-trisulfonic acid trisodium salt]",solubility,[1],≥ 2000 µM
same,stability of OPTS in solvent (autohydrolysis),[2],more stable in DMSO compared to H2O
same,autohydrolysis rate at pH 5.5,"[2]; 25 μM OPTS, AMT buffer pH 5.5, two hours",1.58*10^−7 units (μmol*min-1)
same,autohydrolysis rate at pH 8.0,"[2]; 25 μM OPTS, AMT buffer pH 8.0, two hours",3.48*10^−6 units
same,hydrolysis rate at pH 8 compared to pH 5.5,[2]; autohydrolysis of OPTS,about 22 times
same,autohydrolysis of OPTS compared to 4-MUD,[2]; particularly at pH 8.0,more critical
"CCCCCCCCCCCC(=O)OCCOCCOCCOCCOCCOCCOCCOCCOCCOCCOCCOCCOCCOCCOCCOCCOCCOCCOCCOCCOCC(OCCOCCOCCOCCOCCOCCOCCOCCOCCOCCOCCOCCOCCOCCOCCOCCOCCOCCOCCOCCO)C1OCC(OCCOCCOCCOCCOCCOCCOCCOCCOCCOCCOCCOCCOCCOCCOCCOCCOCCOCCOCCOCCO)C1OCCOCCOCCOCCOCCOCCOCCOCCOCCOCCOCCOCCOCCOCCOCCOCCOCCOCCOCCOCCO (centres unmarked) [Polysorbate 20, polyoxyethylene (20) sorbitan monolaurate]",concentration until which no inhibition was observed,"[3]; PPL, pH 7.0, target concentrations 200 μg/mL to 0.098 μg/mL tested",≤ 50 µg/mL
"C[C@H](CCC(=O)NCCC[N+](C)(C)CCCS(=O)(=O)[O-])[C@H]1CC[C@H]2[C@@H]3[C@H](O)C[C@@H]4C[C@H](O)CC[C@]4(C)[C@H]3C[C@H](O)[C@]12C [CHAPS, 3-[(3-cholamidopropyl)dimethylammonio]-1-propanesulfonate]",activity in the presence of 10 mM CHAPS,"[3]; 1 mg*mL-1 PPL, 25 μM OPTS, AMT pH 7, 10 mM CHAPS",6.16*10^−7 units
same,CMC,[4],about 6 mM
N[C@@H](Cc1c[nH]cn1)C(=O)O [histidine],activity of histidine buffer component in the OPTS assay,[5],low 10^−7
polyethylene glycol tert-octylphenyl ether [Triton X-100],effect of detergent on the 4-MUD assay,lipase activity,inhibited
